Results: ChEMBL document CHEMBL2040791, “Synthesis of novel 6-(4-substituted piperazine-1-yl)-9-(β-D-ribofuranosyl)purine derivatives, which lead to senescence-induced cell death in liver cancer cells” (J Med Chem, 2012)
pIC50: −log10 of the molar value. Calls of active or inactive are those of the source. The rule behind the calls is not given here.

Experiments:
MCF7 = experiment: Cytotoxicity against human MCF7 cells after 72 hrs by SRB assay; type: functional, cell-based; conditions: for pIC50: Homo sapiens, MCF7, 72 h, read-out: IC50; for IC50: mcf7, TDE = time-dependent effect
[1] = Cytotoxicity against human FOCUS cells after 72 hrs by SRB assay; type: functional, cell-based
Huh-7 [2] = experiment: Cytotoxicity against human HuH7 cells after 72 hrs by SRB assay; type: functional, cell-based; conditions: for pIC50: Homo sapiens, Huh-7, 72 h, read-out: IC50; for IC50: huh-7, TDE = time-dependent effect
[3] = Cytotoxicity against human Mahlavu cells after 72 hrs by SRB assay; type: functional, cell-based
HCT-116 = experiment: Cytotoxicity against human HCT116 cells after 72 hrs by SRB assay; type: functional, cell-based; conditions: for pIC50: Homo sapiens, HCT-116, 72 h, read-out: IC50; for IC50: hct-116, TDE = time-dependent effect
HepG2 [4] = experiment: Cytotoxicity against human HepG2 cells after 72 hrs by SRB assay; type: functional, cell-based; conditions: for pIC50: Homo sapiens, HepG2, 72 h, read-out: IC50; for IC50: hepg2, TDE = time-dependent effect
Huh-7 [5] = experiment: Inhibition of protein kinase in human HuH7 cells assessed as increase in ATP level at 5 uM after 72 hrs by Kinase-Glo assay; type: cell-based
Huh-7 [6] = experiment: Antiproliferative activity in human HuH7 cells assessed as inhibition of BrdU incorporation at 25 ng/mL after 3 to 6 days; type: functional, cell-based
Huh-7 [7] = experiment: Induction of senescence in human HuH7 cells assessed as increase in senescence associated beta-galactosidase activity at 25 ng/mL after 3 to 6 days by X-GAL based staining method; type: functional, cell-based
HepG2 [8] = experiment: Induction of apoptosis in human HepG2 cells assessed as PARP cleavage into 89 kDa and 24 kDa fragments at 5.7 uM after 72 hrs by Western blot analysis; type: functional, cell-based
FOCUS [9] = experiment: Growth inhibition of human FOCUS cells at 5 to 30 uM by real-time cell electronic sensing assay; type: functional, cell-based; conditions: TDE = time-dependent effect
Huh-7 [10] = experiment: Antiproliferative activity in human HuH7 cells assessed as inhibition of BrdU incorporation at cytotoxic IC50 to IC100 concentration after 3 to 6 days; type: functional, cell-based
Huh-7 [11] = experiment: Induction of senescence in human HuH7 cells assessed as increase in senescence associated beta-galactosidase activity at cytotoxic IC50 to IC100 concentration after 3 to 6 days by X-GAL based staining method; type: functional, cell-based
FOCUS [12] = experiment: Growth inhibition of human FOCUS cells measured every 30 mins by real-time cell electronic sensing assay; type: functional, cell-based
Mahlavu [13] = experiment: Growth inhibition of human Mahlavu cells at 5 to 30 uM by real-time cell electronic sensing assay; type: functional; conditions: TDE = time-dependent effect
Mahlavu [14] = experiment: Induction of apoptosis in human Mahlavu cells assessed as PARP cleavage into 89 kDa and 24 kDa fragments at 9.2 uM after 72 hrs by Western blot analysis; type: functional, cell-based
Mahlavu [15] = experiment: Growth inhibition of human Mahlavu cells measured every 30 mins by real-time cell electronic sensing assay; type: functional
Huh-7 [16] = experiment: Growth inhibition of human HuH7 cells at 5 to 30 uM by real-time cell electronic sensing assay; type: functional, cell-based; conditions: TDE = time-dependent effect
Huh-7 [17] = experiment: Inhibition of protein kinase in human HuH7 cells assessed as increase in ATP level after 72 hrs by Kinase-Glo assay; type: cell-based
Huh-7 [18] = experiment: Induction of p15INK4b protein expression in human HuH7 cells assessed as inhibition of cyclinD1/[…]-mediated Rb phosphorylation at cytotoxic IC50 to IC100 concentration after 6 days by Western blot analysis; type: functional, cell-based
Huh-7 [19] = experiment: Growth inhibition of human HuH7 cells measured every 30 mins by real-time cell electronic sensing assay; type: functional, cell-based
Mahlavu [20] = experiment: Induction of necrosis in human Mahlavu cells assessed as PARP cleavage into 50 kDa fragment at 9.2 uM after 72 hrs by Western blot analysis; type: functional, cell-based
Huh-7 [21] = experiment: Induction of apoptosis in human HuH7 cells assessed as PARP cleavage into 89 kDa and 24 kDa fragments at 7.8 uM after 72 hrs by Western blot analysis; type: functional, cell-based
FOCUS [22] = experiment: Induction of apoptosis in human FOCUS cells assessed as PARP cleavage into 89 kDa and 24 kDa fragments at 5.2 uM after 72 hrs by Western blot analysis; type: functional, cell-based
Huh-7 [23] = experiment: Induction of necrosis in human HuH7 cells assessed as PARP cleavage into 50 kDa fragment at 7.8 uM after 72 hrs by Western blot analysis; type: functional, cell-based
HepG2 [24] = experiment: Induction of necrosis in human HepG2 cells assessed as PARP cleavage into 50 kDa fragment into at 5.7 uM after 72 hrs by Western blot analysis; type: functional, cell-based
FOCUS [25] = experiment: Induction of necrosis in human FOCUS cells assessed as PARP cleavage into 50 kDa fragment at 5.2 uM after 72 hrs by Western blot analysis; type: functional, cell-based
HepG2 [26] = experiment: Growth inhibition of human HepG2 cells measured every 30 mins by real-time cell electronic sensing assay; type: functional, cell-based
Huh-7 [27] = experiment: Induction of p15INK4b protein expression in human HuH7 cells at cytotoxic IC50 to IC100 concentration by Western blot analysis; type: functional, cell-based; conditions: TDE = time-dependent effect
Huh-7 [28] = experiment: Induction of p15INK4b protein expression in human HuH7 cells after 3 to 6 days by Western blot analysis; type: functional, cell-based
HepG2 [29] = experiment: Growth inhibition of human HepG2 cells at 5 to 30 uM by real-time cell electronic sensing assay; type: functional, cell-based; conditions: TDE = time-dependent effect

SMILES: OC[C@H]1O[C@@H](n2cnc3c(N4CCN(c5ccc(F)cc5)CC4)ncnc32)[C@H](O)[C@@H]1O
- pIC50 (MCF7): < 4.00
- IC50 (MCF7): tde
- pIC50 [1]: < 4.00
- pIC50 (Huh-7 [2]): 4.30
- IC50 (Huh-7 [2]): tde
- pIC50 [3]: < 4.00
- pIC50 (HCT-116): < 4.00
- IC50 (HCT-116): tde
- pIC50 (HepG2 [4]): < 4.00
- IC50 (HepG2 [4]): tde

SMILES: OC[C@H]1O[C@@H](n2cnc3c(N4CCN(c5ccc(Cl)c(Cl)c5)CC4)ncnc32)[C@H](O)[C@@H]1O
- pIC50 (MCF7): 5.01
- IC50 (MCF7): tde
- pIC50 [1]: 5.26
- pIC50 (Huh-7 [2]): 5.15
- IC50 (Huh-7 [2]): tde
- pIC50 [3]: 5.15
- pIC50 (HCT-116): 5.08
- IC50 (HCT-116): tde
- pIC50 (HepG2 [4]): 5.21
- IC50 (HepG2 [4]): tde

SMILES: CSC[C@H]1O[C@@H](n2cnc3c(N)ncnc32)[C@H](O)[C@@H]1O
- inhibition (Huh-7 [5]): Active

SMILES: CC[C@@]1(O)C(=O)OCc2c1cc1n(c2=O)Cc2cc3ccccc3nc2-1 [CAMPTOTHECIN]
- pIC50 (MCF7): > 7.00
- pIC50 [1]: > 7.00
- pIC50 (Huh-7 [2]): > 7.00
- pIC50 [3]: > 7.00
- pIC50 (HCT-116): > 7.00
- pIC50 (HepG2 [4]): > 7.00

SMILES: OC[C@H]1O[C@@H](n2cnc3c(N4CCN(C(c5ccccc5)c5ccccc5)CC4)ncnc32)[C@H](O)[C@@H]1O
- pIC50 (MCF7): 4.40
- IC50 (MCF7): tde
- pIC50 [1]: < 4.00
- pIC50 (Huh-7 [2]): 4.35
- IC50 (Huh-7 [2]): tde
- pIC50 [3]: 4.03
- pIC50 (HCT-116): 4.31
- IC50 (HCT-116): tde
- pIC50 (HepG2 [4]): 4.20
- IC50 (HepG2 [4]): tde

SMILES: COc1cccc2c1C(=O)c1c(O)c3c(c(O)c1C2=O)C[C@@](O)(C(=O)CO)C[C@@H]3O[C@H]1C[C@H](N)[C@H](O)[C@H](C)O1
- Activity (Huh-7 [6]): Active
- Activity (Huh-7 [7]): Active

SMILES: OC[C@H]1O[C@@H](n2cnc3c(N4CCN(c5ccc(C(F)(F)F)cc5)CC4)ncnc32)[C@H](O)[C@@H]1O
- pIC50 (MCF7): 5.12
- IC50 (MCF7): tde
- Activity (HepG2 [8]): inactive
- growth inhibition (GI) (FOCUS [9]): tde
- Activity (Huh-7 [10]): Active
- Activity (Huh-7 [11]): Active
- pIC50 [1]: 5.28
- growth inhibition (GI) (FOCUS [12]): Dose-dependent effect
- pIC50 (Huh-7 [2]): 5.11
- IC50 (Huh-7 [2]): tde
- growth inhibition (GI) (Mahlavu [13]): tde
- pIC50 [3]: 5.04
- Activity (Mahlavu [14]): inactive
- growth inhibition (GI) (Mahlavu [15]): Dose-dependent effect
- pIC50 (HCT-116): 5.17
- IC50 (HCT-116): tde
- growth inhibition (GI) (Huh-7 [16]): tde
- inhibition (Huh-7 [17]): Dose-dependent effect
- Activity (Huh-7 [18]): Active
- growth inhibition (GI) (Huh-7 [19]): Dose-dependent effect
- Activity (Mahlavu [20]): inactive
- Activity (Huh-7 [21]): inactive
- pIC50 (HepG2 [4]): 5.24
- IC50 (HepG2 [4]): tde
- Activity (FOCUS [22]): inactive
- Activity (Huh-7 [23]): inactive
- Activity (HepG2 [24]): inactive
- Activity (FOCUS [25]): inactive
- growth inhibition (GI) (HepG2 [26]): Dose-dependent effect
- Activity (Huh-7 [27]): tde
- Activity (Huh-7 [28]): Dose-dependent effect
- growth inhibition (GI) (HepG2 [29]): tde

SMILES: OC[C@H]1O[C@@H](n2cnc3c(N4CCN(c5ccccc5)CC4)ncnc32)[C@H](O)[C@@H]1O
- pIC50 (MCF7): < 4.00
- IC50 (MCF7): tde
- pIC50 [1]: < 4.00
- pIC50 (Huh-7 [2]): < 4.00
- IC50 (Huh-7 [2]): tde
- pIC50 [3]: < 4.00
- pIC50 (HCT-116): < 4.00
- IC50 (HCT-116): tde
- pIC50 (HepG2 [4]): < 4.00
- IC50 (HepG2 [4]): tde

SMILES: O=c1[nH]cc(F)c(=O)[nH]1 [FLUOROURACIL]
- pIC50 (MCF7): 5.46
- pIC50 [1]: 5.12
- pIC50 (Huh-7 [2]): 4.51
- pIC50 [3]: 5.00
- pIC50 (HCT-116): 5.22
- pIC50 (HepG2 [4]): 5.30
